Tests used:
Type in all cases: in vivo
[1] = system: lambsquarters (Chenopodium album); assay: Test F pre-/postemergence: lambsquarters; conditions: Preemergence
Method in brief: (§1)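 0–100 visual control scores, taken 14–21 d after application in the greenhouse. Preemergence treatment was made to silt loam soil at sowing. Postemergence sprays hit 1- to 4-leaf plants (2–18 cm) in peat/vermiculite mix. Surfactant-containing non-phytotoxic solvent served as the vehicle.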

[2] = system: arrowleaf sida (Sida rhombifolia); assay: Test F pre-/postemergence: arrowleaf sida
Method in brief: as §1

Oilseed Rape = assay: Test C preemergence: oilseed rape; conditions: 31 g ai/ha, scale 0 (no effect) to 100 (complete control)
[3] = system: barnyardgrass (Echinochloa crus-galli); assay: Test F pre-/postemergence: barnyardgrass
Method in brief: as §1

[4] = system: beggarticks (hairy beggarticks, Bidens pilosa); assay: Test F pre-/postemergence: beggarticks
Method in brief: as §1

[5] = 16 g ai/ha, scale 0 to 100, 0 no effect, 100 complete control
[6] = 31 g ai/ha, scale 0 to 100, 0 no effect, 100 complete control
[7] = Postemergence, 250 g ai/ha, scale 0 to 100
[8] = Postemergence, 16 g ai/ha, scale 0 to 100
[9] = Postemergence, 31 g ai/ha, scale 0 to 100
[10] = Postemergence, 62 g ai/ha, scale 0 to 100
[11] = Postemergence, 125 g ai/ha, scale 0 to 100
[12] = Preemergence, 16 g ai/ha, scale 0 to 100, 0 no effect, 100 complete control
[13] = Preemergence, 31 g ai/ha, scale 0 to 100, 0 no effect, 100 complete control
[14] = Preemergence, 62 g ai/ha, scale 0 to 100
[15] = Preemergence, 125 g ai/ha, scale 0 to 100
[16] = Preemergence, 250 g ai/ha, scale 0 to 100

With `CCc1nn(-c2ccc(C(F)(F)F)cc2)nc1Oc1ccnc(C(F)(F)F)c1` [Compound 169] the “Plant response rating, Lambsquarters” value [1, 5] was 0, the “Plant response rating, Lambsquarters” value [1, 6] was 30 and the “Plant response rating, Lambsquarters” value ([1]; 62 g ai/ha, scale 0 to 100) was 98. The “Plant response rating, Lambsquarters” value ([1]; 125 g ai/ha, scale 0 to 100) was 98, the “Plant response rating, Lambsquarters” value ([1]; 250 g ai/ha, scale 0 to 100) was 100 and the “Plant response rating, Arrowleaf Sida” value [2, 7] was 50. The “Plant response rating, Arrowleaf Sida” value [2, 8] was 20, the “Plant response rating, Arrowleaf Sida” value [2, 9] was 20 and the “Plant response rating, Arrowleaf Sida” value [2, 10] was 20. For the same compound, the “Plant response rating, Arrowleaf Sida” value [2, 11] was 30, the “Plant response rating, Arrowleaf Sida” value [2, 12] was 0 and the “Plant response rating, Arrowleaf Sida” value [2, 13] was 0. For the same compound, the “Plant response rating, Arrowleaf Sida” value [2, 14] was 0, the “Plant response rating, Arrowleaf Sida” value [2, 15] was 5 and the “Plant response rating, Arrowleaf Sida” value [2, 16] was 5. For the same compound, the “Plant response rating, Oilseed Rape” value (Oilseed Rape) was 50, the “Plant response rating, Barnyardgrass” value [3, 7] was 40 and the “Plant response rating, Barnyardgrass” value [3, 8] was 0. For the same compound, the “Plant response rating, Barnyardgrass” value [3, 9] was 0, the “Plant response rating, Barnyardgrass” value [3, 10] was 15 and the “Plant response rating, Barnyardgrass” value [3, 11] was 25. The “Plant response rating, Barnyardgrass” value [3, 12] was 0, the “Plant response rating, Barnyardgrass” value [3, 13] was 0 and the “Plant response rating, Barnyardgrass” value [3, 14] was 20. The “Plant response rating, Barnyardgrass” value [3, 15] was 60, the “Plant response rating, Barnyardgrass” value [3, 16] was 95 and the “Plant response rating, Beggarticks” value [4, 7] was 40. For the same compound, the “Plant response rating, Beggarticks” value [4, 8] was 25, the “Plant response rating, Beggarticks” value [4, 9] was 25 and the “Plant response rating, Beggarticks” value [4, 10] was 25. The “Plant response rating, Beggarticks” value [4, 11] was 30, the “Plant response rating, Beggarticks” value [4, 12] was 0 and the “Plant response rating, Beggarticks” value [4, 13] was 0. The “Plant response rating, Beggarticks” value [4, 14] was 0, the “Plant response rating, Beggarticks” value [4, 15] was 5 and the “Plant response rating, Beggarticks” value [4, 16] was 5.

In the case of `CCCc1nn(-c2ccc(F)c(F)c2)nc1Oc1ccnc(C(F)(F)F)c1` [Compound 172], the “Plant response rating, Lambsquarters” value [1, 6] is reported as 50, the “Plant response rating, Lambsquarters” value ([1]; 125 g ai/ha, scale 0 to 100) is reported as 98 and the “Plant response rating, Lambsquarters” value ([1]; 250 g ai/ha, scale 0 to 100) is reported as 98. The “Plant response rating, Arrowleaf Sida” value [2, 7] was 100, the “Plant response rating, Arrowleaf Sida” value [2, 9] was 65 and the “Plant response rating, Arrowleaf Sida” value [2, 11] was 90. For the same compound, the “Plant response rating, Arrowleaf Sida” value [2, 13] was 30, the “Plant response rating, Arrowleaf Sida” value [2, 15] was 95 and the “Plant response rating, Arrowleaf Sida” value [2, 16] was 100. For the same compound, the “Plant response rating, Oilseed Rape” value (Oilseed Rape) was 60, the “Plant response rating, Barnyardgrass” value [3, 7] was 85 and the “Plant response rating, Barnyardgrass” value [3, 9] was 20. For the same compound, the “Plant response rating, Barnyardgrass” value [3, 11] was 50, the “Plant response rating, Barnyardgrass” value [3, 13] was 70 and the “Plant response rating, Barnyardgrass” value [3, 15] was 100. For the same compound, the “Plant response rating, Barnyardgrass” value [3, 16] was 100, the “Plant response rating, Beggarticks” value [4, 7] was 60 and the “Plant response rating, Beggarticks” value [4, 9] was 40. For the same compound, the “Plant response rating, Beggarticks” value [4, 11] was 50, the “Plant response rating, Beggarticks” value [4, 13] was 15 and the “Plant response rating, Beggarticks” value [4, 15] was 25. The “Plant response rating, Beggarticks” value [4, 16] was 25.

`CCc1nn(-c2ccc(F)c(F)c2)nc1Oc1ccnc(C(F)(F)F)c1` [Compound 171] was tested, and the “Plant response rating, Lambsquarters” value [1, 5] was 0, the “Plant response rating, Lambsquarters” value [1, 6] was 0 and the “Plant response rating, Lambsquarters” value ([1]; 62 g ai/ha, scale 0 to 100) was 35. For the same compound, the “Plant response rating, Lambsquarters” value ([1]; 125 g ai/ha, scale 0 to 100) was 65, the “Plant response rating, Lambsquarters” value ([1]; 250 g ai/ha, scale 0 to 100) was 98 and the “Plant response rating, Arrowleaf Sida” value [2, 12] was 0. For the same compound, the “Plant response rating, Arrowleaf Sida” value [2, 13] was 0, the “Plant response rating, Arrowleaf Sida” value [2, 14] was 15 and the “Plant response rating, Arrowleaf Sida” value [2, 15] was 30. For the same compound, the “Plant response rating, Arrowleaf Sida” value [2, 16] was 60, the “Plant response rating, Oilseed Rape” value (Oilseed Rape) was 0 and the “Plant response rating, Barnyardgrass” value [3, 12] was 0. The “Plant response rating, Barnyardgrass” value [3, 13] was 5, the “Plant response rating, Barnyardgrass” value [3, 14] was 5 and the “Plant response rating, Barnyardgrass” value [3, 15] was 80. For the same compound, the “Plant response rating, Barnyardgrass” value [3, 16] was 100, the “Plant response rating, Beggarticks” value [4, 12] was 0 and the “Plant response rating, Beggarticks” value [4, 13] was 0. The “Plant response rating, Beggarticks” value [4, 14] was 0, the “Plant response rating, Beggarticks” value [4, 15] was 0 and the “Plant response rating, Beggarticks” value [4, 16] was 0.
